The record followed here is ChEMBL document CHEMBL1151052, “Semi-synthetic qualestatins: Squalene synthase inhibition and antifungal activity. The SAR of C6 and C7 modifications” (Bioorg Med Chem Lett, 1993).

One assay deals with Aspergillus niger. The experiment in a line: Tested for the whole cell antifungal activity against Aspergillus niger 48238 strain. The format is functional.
The subject of another assay is Candida albicans. Kind of assay: Antifungal activity against Candida albicans C316 strain. The format is functional.
The next assay has as its target T1, Squalene synthase (Rattus norvegicus, UniProt Q02769).
T1 sequence (Q02769 whole entry): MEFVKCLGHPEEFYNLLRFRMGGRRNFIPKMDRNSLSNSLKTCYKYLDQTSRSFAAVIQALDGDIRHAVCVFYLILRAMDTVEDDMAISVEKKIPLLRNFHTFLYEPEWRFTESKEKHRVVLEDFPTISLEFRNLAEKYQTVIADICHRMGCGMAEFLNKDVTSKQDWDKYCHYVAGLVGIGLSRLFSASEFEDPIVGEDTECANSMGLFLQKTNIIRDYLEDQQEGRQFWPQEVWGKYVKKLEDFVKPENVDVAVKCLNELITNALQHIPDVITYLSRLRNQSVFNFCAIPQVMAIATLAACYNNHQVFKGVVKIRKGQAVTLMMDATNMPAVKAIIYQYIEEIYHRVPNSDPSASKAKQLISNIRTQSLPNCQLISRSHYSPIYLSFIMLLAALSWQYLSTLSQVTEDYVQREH
The experiment in a line: Inhibition of rat liver squalene synthase(SQS).

Another assay has as its system Cryptococcus neoformans. The experiment in a line: Antifungal activity against Cryptococcus neoformans 2867E strain. The format is functional.

pIC50: −log10 of the molar value. In brackets after ≈: the same amount, converted by molar mass.

For the molecule `C=C(CC[C@]12O[C@H](C(=O)O)[C@@](O)(C(=O)O)[C@](C(=O)O)(O1)[C@H](OC(=O)OCCCC)[C@H]2O)[C@@H](OC(C)=O)[C@H](C)Cc1ccccc1`, the minimum inhibitory concentration (MIC) with Aspergillus niger, in the assay with Candida albicans and with Cryptococcus neoformans was over 125 µg/mL throughout. Moreover, at Squalene synthase, the pIC50 was 8.40.

With `C=C(CC[C@]12O[C@H](C(=O)O)[C@@](O)(C(=O)O)[C@](C(=O)O)(O1)[C@H](OC(=O)CCCCCCCCC)[C@H]2O)[C@@H](OC(C)=O)[C@H](C)Cc1ccccc1`, the MIC against Aspergillus niger amounted to 2 µg/mL (≈ 2.89 µM); in the assay with Candida albicans, 16 µg/mL (≈ 23.1 µM); in the assay on Cryptococcus neoformans, 2 µg/mL (≈ 2.89 µM). Further, the pIC50 against Squalene synthase was 8.10.

`C=C(CC[C@]12O[C@H](C(=O)O)[C@@](O)(C(=O)O)[C@](C(=O)O)(O1)[C@H](O)[C@H]2OC(C)=O)[C@@H](OC(C)=O)[C@H](C)Cc1ccccc1`: the MIC with Aspergillus niger and against Candida albicans was over 125 µg/mL in each case.

`C=C(CC[C@]12O[C@H](C(=O)O)[C@@](O)(C(=O)O)[C@](C(=O)O)(O1)[C@H](OC(C)=O)[C@H]2O)[C@@H](OC(C)=O)[C@H](C)Cc1ccccc1`: the MIC against Aspergillus niger, in the assay with Candida albicans and against Cryptococcus neoformans was over 125 µg/mL throughout. The same molecule had a pIC50 against Squalene synthase of 8.70.

Turning to `C=C(CC[C@]12O[C@H](C(=O)O)[C@@](O)(C(=O)O)[C@](C(=O)O)(O1)[C@H](O)[C@H]2OC(=O)CCCCCCCCC)[C@@H](OC(C)=O)[C@H](C)Cc1ccccc1`, the MIC against Aspergillus niger, against Candida albicans and against Cryptococcus neoformans was over 125 µg/mL throughout. Also, the pIC50 against Squalene synthase was 6.52.

With `C=C(CC[C@]12O[C@H](C(=O)O)[C@@](O)(C(=O)O)[C@](C(=O)O)(O1)[C@H](OC(=O)/C=C/[C@@H](C)C[C@@H](C)CC)[C@H]2OC(C)=O)[C@@H](OC(C)=O)[C@H](C)Cc1ccccc1`, the MIC with Aspergillus niger was 8 µg/mL (≈ 10.9 µM); with Candida albicans, over 125 µg/mL; in the assay with Cryptococcus neoformans, 1 µg/mL (≈ 1.36 µM). Also, the pIC50 on Squalene synthase is 8.00.

With `C=C(CC[C@]12O[C@H](C(=O)O)[C@@](O)(C(=O)O)[C@](C(=O)O)(O1)[C@H](OC(=O)CCCCCCC)[C@H]2OC(=O)CCCCCCC)[C@@H](OC(C)=O)[C@H](C)Cc1ccccc1`, the minimum inhibitory concentration (MIC) in the assay on Aspergillus niger, in the assay with Candida albicans and with Cryptococcus neoformans was over 125 µg/mL each time. The molecule further gave a pIC50 against Squalene synthase of 6.55.

In the case of `C=C(CC[C@]12O[C@H](C(=O)O)[C@@](O)(C(=O)O)[C@](C(=O)O)(O1)[C@H](OC(=O)/C=C/[C@@H](C)C[C@@H](C)CC)[C@H]2OC(=O)CCCCCCC)[C@@H](OC(C)=O)[C@H](C)Cc1ccccc1`, the MIC with Aspergillus niger, with Candida albicans and with Cryptococcus neoformans was over 32 µg/mL in each case.

For the molecule `C=C(CC[C@]12O[C@H](C(=O)O)[C@@](O)(C(=O)O)[C@](C(=O)O)(O1)[C@H](OC(=O)CCCCCCc1ccccc1)[C@H]2O)[C@@H](OC(C)=O)[C@H](C)Cc1ccccc1`, the minimal inhibitory concentration (MIC) against Aspergillus niger came out at 62 µg/mL (≈ 85.3 µM); against Candida albicans, 125 µg/mL (≈ 172 µM); in the assay with Cryptococcus neoformans it was 2 µg/mL (≈ 2.75 µM). This molecule also gave a pIC50 against Squalene synthase of 8.05.

Consider `C=C(CC[C@]12O[C@H](C(=O)O)[C@@](O)(C(=O)O)[C@](C(=O)O)(O1)[C@H](OC(C)=O)[C@H]2OC(C)=O)[C@@H](OC(C)=O)[C@H](C)Cc1ccccc1`, for which the minimal inhibitory concentration (MIC) with Aspergillus niger and against Candida albicans was over 125 µg/mL throughout.

On to `C=C(CC[C@]12O[C@H](C(=O)O)[C@@](O)(C(=O)O)[C@](C(=O)O)(O1)[C@H](OC(=O)OC)[C@H]2O)[C@@H](OC(C)=O)[C@H](C)Cc1ccccc1`, for which the minimal inhibitory concentration (MIC) in the assay with Aspergillus niger, against Candida albicans and in the assay on Cryptococcus neoformans was over 125 µg/mL throughout. For the same molecule, the pIC50 on Squalene synthase is 8.52.

Regarding `C=C(CC[C@]12O[C@H](C(=O)O)[C@@](O)(C(=O)O)[C@](C(=O)O)(O1)[C@H](OC(=O)CCCCCCC)[C@H]2O)[C@@H](OC(C)=O)[C@H](C)Cc1ccccc1`, the values for the MIC in the assay on Aspergillus niger, with Candida albicans and with Cryptococcus neoformans were 8 µg/mL (≈ 12 µM), 31 µg/mL (≈ 46.6 µM) and 1 µg/mL (≈ 1.5 µM), respectively. This molecule also had a pIC50 on Squalene synthase of 8.52.

Take `C=C(CC[C@]12O[C@H](C(=O)O)[C@@](O)(C(=O)O)[C@](C(=O)O)(O1)[C@H](OC(=O)/C=C/[C@@H](C)C[C@@H](C)CC)[C@H]2OC(=O)OC)[C@@H](OC(C)=O)[C@H](C)Cc1ccccc1`: the MIC is over 125 µg/mL in the assay on Aspergillus niger, 125 µg/mL (≈ 167 µM) in the assay on Candida albicans and over 125 µg/mL with Cryptococcus neoformans. Also, the pIC50 on Squalene synthase was 7.82.

Turning to `C=C(CC[C@]12O[C@H](C(=O)O)[C@@](O)(C(=O)O)[C@](C(=O)O)(O1)[C@H](OC(=O)/C=C/[C@@H](C)C[C@@H](C)CC)[C@H]2O)[C@@H](OC(C)=O)[C@H](C)Cc1ccccc1` [ZARAGOZIC ACIDS A], the values for the MIC against Aspergillus niger, against Candida albicans and with Cryptococcus neoformans were 16 µg/mL (≈ 23.2 µM), 8 µg/mL (≈ 11.6 µM) and 0.5 µg/mL (≈ 0.724 µM), respectively.

Regarding `C=C(CC[C@]12O[C@H](C(=O)O)[C@@](O)(C(=O)O)[C@](C(=O)O)(O1)[C@H](OC(=O)CC1CCCCC1)[C@H]2O)[C@@H](OC(C)=O)[C@H](C)Cc1ccccc1`, the MIC stood at 62 µg/mL (≈ 93.6 µM) in the assay on Aspergillus niger, 62 µg/mL (≈ 93.6 µM) with Candida albicans and 2 µg/mL (≈ 3.02 µM) against Cryptococcus neoformans.

Regarding `C=C(CC[C@]12O[C@H](C(=O)O)[C@@](O)(C(=O)O)[C@](C(=O)O)(O1)[C@H](OC(=O)CCC)[C@H]2OC(=O)CCC)[C@@H](OC(C)=O)[C@H](C)Cc1ccccc1`, the MIC with Aspergillus niger, against Candida albicans and in the assay on Cryptococcus neoformans was over 125 µg/mL each time.

For `C=C(CC[C@]12O[C@H](C(=O)O)[C@@](O)(C(=O)O)[C@](C(=O)O)(O1)[C@H](OC(=O)CCCC)[C@H]2O)[C@@H](OC(C)=O)[C@H](C)Cc1ccccc1`, the MIC in the assay on Aspergillus niger, with Candida albicans and against Cryptococcus neoformans was over 125 µg/mL in each case.

Turning to `C=C(CC[C@]12O[C@H](C(=O)O)[C@@](O)(C(=O)O)[C@](C(=O)O)(O1)[C@H](O)[C@H]2O)[C@@H](OC(C)=O)[C@H](C)Cc1ccccc1`, the MIC against Aspergillus niger, in the assay on Candida albicans and against Cryptococcus neoformans was over 125 µg/mL in each case.

For `C=C(CC[C@]12O[C@H](C(=O)O)[C@@](O)(C(=O)O)[C@](C(=O)O)(O1)[C@H](OC(=O)c1ccccc1)[C@H]2O)[C@@H](OC(C)=O)[C@H](C)Cc1ccccc1`, the MIC with Aspergillus niger, against Candida albicans and with Cryptococcus neoformans was over 125 µg/mL in each case. This molecule showed a pIC50 on Squalene synthase of 8.10.

As for `C=C(CC[C@]12O[C@H](C(=O)O)[C@@](O)(C(=O)O)[C@](C(=O)O)(O1)[C@H](O)[C@H]2OC(=O)CCCCCCC)[C@@H](OC(C)=O)[C@H](C)Cc1ccccc1`, the MIC with Aspergillus niger, with Candida albicans and with Cryptococcus neoformans was over 125 µg/mL each time. Further, the pIC50 at Squalene synthase was under 6.30.

Turning to `C=C(CC[C@]12O[C@H](C(=O)O)[C@@](O)(C(=O)O)[C@](C(=O)O)(O1)[C@H](O)[C@H]2OC(=O)OC)[C@@H](OC(C)=O)[C@H](C)Cc1ccccc1`, the MIC with Aspergillus niger, in the assay with Candida albicans and with Cryptococcus neoformans was over 125 µg/mL in each case. This molecule also gave a negative-log IC50 (pIC50) on Squalene synthase of 6.42.

Take `C=C(CC[C@]12O[C@H](C(=O)O)[C@@](O)(C(=O)O)[C@](C(=O)O)(O1)[C@H](OC(=O)C1CCCCC1)[C@H]2O)[C@@H](OC(C)=O)[C@H](C)Cc1ccccc1`: the MIC was over 62 µg/mL with Aspergillus niger, over 62 µg/mL in the assay with Candida albicans and 31 µg/mL (≈ 47.8 µM) with Cryptococcus neoformans. The pIC50 against Squalene synthase was 7.77.

Turning to `C=C(CC[C@]12O[C@H](C(=O)O)[C@@](O)(C(=O)O)[C@](C(=O)O)(O1)[C@H](OC(=O)/C=C/c1ccccc1)[C@H]2O)[C@@H](OC(C)=O)[C@H](C)Cc1ccccc1`, the MIC with Aspergillus niger is over 125 µg/mL; against Candida albicans, over 125 µg/mL; in the assay on Cryptococcus neoformans it was 31 µg/mL (≈ 46.4 µM). In addition, the pIC50 against Squalene synthase is 8.40.

Take `C=C(CC[C@]12O[C@H](C(=O)O)[C@@](O)(C(=O)O)[C@](C(=O)O)(O1)[C@H](OC(=O)OCCCCCCCCC)[C@H]2O)[C@@H](OC(C)=O)[C@H](C)Cc1ccccc1`: the MIC was found to be 0.25 µg/mL (≈ 0.353 µM) against Aspergillus niger, 1 µg/mL (≈ 1.41 µM) against Candida albicans and 0.06 µg/mL (≈ 0.0847 µM) with Cryptococcus neoformans. Moreover, the pIC50 against Squalene synthase is 8.15.
